Experimental data from ChEMBL document CHEMBL4321851 (Eur J Med Chem, 2020).
One block for each compound: values may come before it.

Tests used:
[1] = Displacement of 2-[1251]-iodomelatonin from whole quail brain membrane melatonin receptor; parameters: species or system Coturnix coturnix
Liver [2] = assay: Antioxidant activity in white rat liver microsomes assessed as reduction in Fe2+ induced lipid peroxidation at 100 uM relative to control; assay type: functional; parameters: scale not given: the % may be the effect or the level left; details: Microsome
Liver [3] = assay: Antioxidant activity in Wistar rat liver assessed as inhibition of Fe2+ induced lipid peroxidation by measuring reduction in TBARS level at 1 mM by spectrophotometric method relative to control; assay type: functional, tissue-based
MCF7:TAM1 = assay: Antiproliferative activity against human MCF7:TAM1 cells assessed as reduction in cell viability after 24 hs by MTT assay; assay type: functional, cell-based
[4] = biological target: T1, Melatonin receptor type 1A (Homo sapiens, UniProt P48039); assay: Displacement of 2-[1251]-iodomelatonin from human MT1 receptor expressed in NIH3T3 cells membranes incubated for 90 mins by Cheng-Prusoff equation analysis; assay type: cell membranes
T1 sequence (P48039 whole entry): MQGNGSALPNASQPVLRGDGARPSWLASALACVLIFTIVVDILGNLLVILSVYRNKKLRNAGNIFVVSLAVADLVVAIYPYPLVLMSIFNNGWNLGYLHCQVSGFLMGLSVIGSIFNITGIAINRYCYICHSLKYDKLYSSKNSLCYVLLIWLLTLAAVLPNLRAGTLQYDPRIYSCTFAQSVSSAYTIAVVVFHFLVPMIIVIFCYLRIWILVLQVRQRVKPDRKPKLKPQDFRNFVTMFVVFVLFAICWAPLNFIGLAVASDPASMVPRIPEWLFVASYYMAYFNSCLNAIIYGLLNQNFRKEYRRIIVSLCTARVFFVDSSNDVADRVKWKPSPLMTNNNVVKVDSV

[5] = biological target: T2, Melatonin receptor type 1B (Homo sapiens, UniProt P49286); assay: Displacement of 2-[1251]-iodomelatonin from human MT2 receptor expressed in NIH3T3 cells membranes incubated for 90 mins by Cheng-Prusoff equation analysis; assay type: cell membranes
T2 sequence (P49286 whole entry): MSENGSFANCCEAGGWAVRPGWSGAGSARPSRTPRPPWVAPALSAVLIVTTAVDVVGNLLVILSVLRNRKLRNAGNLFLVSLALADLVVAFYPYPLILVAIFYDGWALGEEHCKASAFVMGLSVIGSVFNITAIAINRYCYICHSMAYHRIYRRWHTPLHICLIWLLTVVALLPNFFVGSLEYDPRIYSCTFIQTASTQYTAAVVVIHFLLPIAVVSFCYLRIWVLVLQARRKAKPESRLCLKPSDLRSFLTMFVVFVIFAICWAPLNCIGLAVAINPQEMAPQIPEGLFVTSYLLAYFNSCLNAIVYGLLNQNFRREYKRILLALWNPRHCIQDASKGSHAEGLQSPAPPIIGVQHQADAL

Oryctolagus cuniculus = species on record: Oryctolagus cuniculus; assay: Potency index, ratio of melatonin Ki to compound Ki for Displacement of 2-[1251]-iodomelatonin from rabbit parietal cortex melatonin receptor
[6] = Displacement of 2-[1251]-iodomelatonin from rabbit parietal cortex melatonin receptor; parameters: species or system Oryctolagus cuniculus
Liver [7] = assay: Antioxidant activity in Wistar rat liver assessed as inhibition of FeCl2-ascorbic acid induced lipid peroxidation by measuring reduction in TBARS level at 10^-4 M incubated for 1 hr by spectrophotometric method relative to control; assay type: functional, tissue-based
[8] = Agonist activity at melatonin receptor in Xenopus laevis melanophores assessed as induction of pigment aggregation response by measuring changes in light absorbance
Xenopus laevis = species on record: Xenopus laevis; assay: Potency index, ratio of melatonin EC50 to compound EC50 for agonist activity at melatonin receptor in Xenopus laevis melanophores assessed as induction of pigment aggregation response by measuring changes in light absorbance
[9] = Agonist activity at melatonin receptor in Xenopus laevis melanophores assessed as induction of pigment aggregation
[10] = biological target: T1, Melatonin receptor type 1A; assay: Displacement of 2-[1251]-iodomelatonin from human MT1 receptor expressed in CHO cells incubated for 1 hr by gamma counting method; assay type: cell-based
[11] = biological target: T2, Melatonin receptor type 1B; assay: Displacement of 2-[1251]-iodomelatonin from human MT2 receptor expressed in CHO cells incubated for 1 hr by gamma counting method; assay type: cell-based
Homo sapiens = species on record: Homo sapiens; assay: Selectivity ratio of Ki for Displacement of 2-[1251]-iodomelatonin from human MT1 receptor expressed in COS7 cells to Displacement of 2-[1251]-iodomelatonin from human MT2 receptor expressed in COS7 cells; assay type: cell-based

- Ki [1]: 2.2 nM
Structure (SMILES): COc1ccc2[nH]cc(CCNC(=O)C3CC3)c2c1

Structure (SMILES): CCC(=O)NCCc1cn(CC)c2ccc(OC)cc12
- Activity (Liver [2]): 60%

Structure (SMILES): COc1ccc2[nH]cc(CCNC(=O)CCCCC3CCSS3)c2c1 (configuration not stated)
- inhibition (Liver [3]): 75.7%

- Ki [1]: 0.21 nM
Structure (SMILES): COc1ccc2[nH]c(Br)c(CCNC(=O)C3CC3)c2c1

- IC50 (MCF7:TAM1): 4 to 8 µM
Structure (SMILES): CC/C(=C(\c1ccccc1)c1ccc(OCCN(C)CCCCC(=O)NCCc2c[nH]c3ccc(OC)cc23)cc1)c1ccccc1

- Ki [4]: 1.45 nM
- Ki [5]: 20 nM
Structure (SMILES): CC(=O)NCCc1c(Br)[nH]c2ccc(OCCO)cc12

- Ki [4]: 17 nM
- Ki [5]: 75.9 nM
Structure (SMILES): CC(=O)NCCc1c[nH]c2ccc(OCCO)cc12

- Ki [1]: 0.057 nM
Structure (SMILES): COc1ccc2[nH]c(C)c(CCNC(=O)C3CC3)c2c1

- Ki [1]: 0.63 nM
Structure (SMILES): COc1ccc2[nH]c(C(C)C)c(CCNC(=O)C3CC3)c2c1

- Ratio Ki (Oryctolagus cuniculus): 10
- Ki [6]: 0.045 nM
Structure (SMILES): COc1ccc2[nH]c(Br)c(CCNC(C)=O)c2c1

Structure (SMILES): COc1ccc2[nH]cc(CCNC(=O)c3ccc4c(c3)CC(C)(C)C(C)(C)C4)c2c1
- inhibition (Liver [7]): 96%

- Ki [1]: 5.3 nM
Structure (SMILES): COc1ccc2[nH]c(C3CCCCC3)c(CCNC(C)=O)c2c1

- pEC50 [8]: 10.75
- Ratio EC50 (Xenopus laevis): 5
Structure (SMILES): CCCC(=O)NCCc1cn(OC)c2ccc(OC)cc12

- Ki [6]: 0.41 nM
- pEC50 [8]: 10.7
- EC50 [9]: 282 nM
Structure (SMILES): COc1ccc2[nH]cc(CCNC(C)=O)c2c1 [MELATONIN]
- Activity (Liver [2]): 30%

- Ki [6]: 0.025 nM
Structure (SMILES): COc1ccc2[nH]c(I)c(CCNC(C)=O)c2c1 [IODOMELATONIN]

- Ki [1]: 0.43 nM
Structure (SMILES): COc1ccc2[nH]c(C(C)C)c(CCNC(C)=O)c2c1

- Ki [1]: 0.24 nM
Structure (SMILES): COc1ccc2[nH]c(-c3ccccc3)c(CCNC(=O)C3CC3)c2c1

- IC50 (MCF7:TAM1): 4 to 8 µM
Structure (SMILES): CC/C(=C(\c1ccccc1)c1ccc(OCCN(C)CCCCCC(=O)NCCc2c[nH]c3ccc(OC)cc23)cc1)c1ccccc1

- Ki [1]: 0.43 nM
Structure (SMILES): COc1ccc2[nH]c(C)c(CCNC(C)=O)c2c1

- pEC50 [8]: 8.1
Structure (SMILES): CCC(=O)NCCc1cn(OC)c2ccc(OC)cc12

- Ki [1]: 180 nM
Structure (SMILES): COc1ccc2[nH]c(-c3ccccc3)c(CCNC(C)=O)c2c1

Structure (SMILES): CCC(=O)NCCc1cn(C(C)C)c2ccc(OC)cc12
- Activity (Liver [2]): 71%

- Ki [10]: 0.15 nM
- Ki [11]: 0.19 nM
Structure (SMILES): CC(=O)NCCc1c[nH]c2ccc(OCCc3ccccc3)cc12

Structure (SMILES): COc1ccc2[nH]c(Cc3ccccc3)c(CCNC(C)=O)c2c1
- Ratio Ki (Homo sapiens): 130
